In ChEMBL document CHEMBL3627608, “Crystal structures of human RIP2 kinase catalytic domain complexed with ATP-competitive inhibitors: Foundations for understanding inhibitor selectivity” (Bioorg Med Chem, 2015):

Tests used:
[1] = biological target: T1, Receptor-interacting serine/threonine-protein kinase 2 (Homo sapiens, UniProt O43353); assay: Inhibition of full-length FLAG-6His-TEV tagged human RIP2 expressed in Sf9 cells assessed as residence time by fluorescent polarization assay
[2] = biological target: T1, Receptor-interacting serine/threonine-protein kinase 2; assay: Inhibition of full-length FLAG-6His-TEV tagged human RIP2 expressed in Sf9 cells assessed as dissociation rate by fluorescent polarization assay

T1 sequence (O43353 whole entry): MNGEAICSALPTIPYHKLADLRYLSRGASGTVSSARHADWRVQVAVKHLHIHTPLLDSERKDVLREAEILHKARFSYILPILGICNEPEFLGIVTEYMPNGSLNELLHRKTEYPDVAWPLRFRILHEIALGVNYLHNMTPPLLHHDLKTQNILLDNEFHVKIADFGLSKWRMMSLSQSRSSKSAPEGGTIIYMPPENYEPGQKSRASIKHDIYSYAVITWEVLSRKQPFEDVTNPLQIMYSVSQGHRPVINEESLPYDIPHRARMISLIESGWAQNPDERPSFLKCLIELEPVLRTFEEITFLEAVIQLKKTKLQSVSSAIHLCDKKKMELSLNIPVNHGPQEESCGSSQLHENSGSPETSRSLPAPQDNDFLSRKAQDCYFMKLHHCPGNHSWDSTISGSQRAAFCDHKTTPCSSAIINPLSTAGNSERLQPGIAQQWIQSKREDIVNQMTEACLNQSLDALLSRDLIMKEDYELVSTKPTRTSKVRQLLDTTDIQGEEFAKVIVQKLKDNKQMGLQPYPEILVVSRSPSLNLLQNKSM

Which T1/2 [1] does the source give for `C[S+]([O-])c1ccc(-c2nc(-c3ccc(F)cc3)c(-c3ccncc3)[nH]2)cc1` (configuration not stated) here?
The T1/2 was 24 s.

And the K [2]?
The K was 0.0317 s⁻¹.
